# Where a SMILES comes first, the peptide text is derived from it. Bridges are numbered along the chain shown (N, C = ends). [ ]: non-standard residue; d: D form. ξ: configuration not given here. Trp(1-CH2COOH) = N[C@@H](Cc1cn(CC(=O)O)c2ccccc12)C(=O)O; Hyp = O=C(O)[C@@H]1C[C@@H](O)CN1; NMeNle = CCCC[C@H](NC)C(=O)O; hSer = N[C@@H](CCO)C(=O)O; NMeA = CN[C@@H](C)C(=O)O; Orn = NCCC[C@H](N)C(=O)O; Dab = NCC[C@H](N)C(=O)O; Dap = NC[C@H](N)C(=O)O; ξP = O=C(O)C1CCCN1
# Molecular target: T1, Human PD-L1/PD-1 (Homo sapiens, UniProt Q9NZQ7)
# T1 construct: TVMV protease cleavage site (C); made in house; host or cells: HEK293T cells
# T1 sequence (Q9NZQ7 with tags, fused parts or gaps): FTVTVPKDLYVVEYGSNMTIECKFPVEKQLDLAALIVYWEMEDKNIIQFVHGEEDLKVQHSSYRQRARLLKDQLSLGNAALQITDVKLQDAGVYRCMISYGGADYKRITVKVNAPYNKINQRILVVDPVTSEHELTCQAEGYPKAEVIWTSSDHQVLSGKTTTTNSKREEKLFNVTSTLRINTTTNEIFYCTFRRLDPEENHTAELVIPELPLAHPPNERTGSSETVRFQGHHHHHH
# Assay: HTRF Human PD-L1/PD-1 binding assay (PD-1-Ig/PD-L1-His)
# Conditions: PD-L1-His 10 nM, PD-1-Ig 20 nM; class symbol; read-out: HTRF Human PD-L1/PD-1 Binding Assay IC50 Range
# How it was run: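 HTRF competition using HEK293T-expressed human PD-1(25-167)-Ig at 20 nM and PD-L1(18-239)-His at 10 nM, compound incubated first with PD-L1 for 15 min, then with PD-1 for 15 min. Signal read as 665/620 nm ratio 30 min after adding Eu anti-Ig and APC anti-His antibodies.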
row,SMILES,IC50 [nM]
1,CCCC[C@H]1C(=O)N(C)[C@@H](CCCC)C(=O)N[C@@H](CCCNC(=N)N)C(=O)N[C@H](C(=O)NCC(N)=O)CSCC(=O)N[C@@H](Cc2ccc(O)cc2)C(=O)N(C)[C@@H](C)C(=O)N[C@@H](CC(=O)O)C(=O)N2CCC[C@H]2C(=O)N[C@@H](Cc2cnc[nH]2)C(=O)N[C@@H](CCCCN)C(=O)N2C[C@H](O)C[C@H]2C(=O)N[C@@H](Cc2c[nH]c3ccccc23)C(=O)N[C@@H](CCCCN)C(=O)N[C@@H](Cc2cn(CC(=O)O)c3ccccc23)C(=O)N1C [Example 6224] ({CH2CO}-Y[NMeA]DPHK[Hyp]WK[Trp(1-CH2COOH)][NMeNle][NMeNle]RCG-NH2; thioether N-14),10 to 99.9
2,CCCC[C@H]1C(=O)N(C)[C@@H](CCCC)C(=O)N[C@@H](CC(C)C)C(=O)N[C@H](C(=O)NCC(N)=O)CSCC(=O)N[C@@H](Cc2ccc(O)cc2)C(=O)N(C)[C@@H](C)C(=O)N[C@@H](CCN)C(=O)N2CCC[C@H]2C(=O)N[C@@H](Cc2cnc[nH]2)C(=O)N[C@@H](CCC(=O)O)C(=O)N2C[C@H](O)C[C@H]2C(=O)N[C@@H](Cc2c[nH]c3ccccc23)C(=O)N[C@@H](CO)C(=O)N[C@@H](Cc2cn(CC(=O)O)c3ccccc23)C(=O)N1C [Example 6236] ({CH2CO}-Y[NMeA][Dab]PHE[Hyp]WS[Trp(1-CH2COOH)][NMeNle][NMeNle]LCG-NH2; thioether N-14),1 to 9.9
3,CCCC[C@H]1C(=O)N(C)[C@@H](CCCC)C(=O)N[C@@H](CN)C(=O)N[C@H](C(=O)NCC(N)=O)CSCC(=O)N[C@@H](Cc2ccc(O)cc2)C(=O)N(C)[C@@H](C)C(=O)N[C@@H](CC(N)=O)C(=O)N2CCC[C@H]2C(=O)N[C@@H](Cc2cnc[nH]2)C(=O)N[C@@H](CCC(=O)O)C(=O)N2C[C@H](O)C[C@H]2C(=O)N[C@@H](Cc2c[nH]c3ccccc23)C(=O)N[C@@H](CO)C(=O)N[C@@H](Cc2cn(CC(=O)O)c3ccccc23)C(=O)N1C [Example 6244] ({CH2CO}-Y[NMeA]NPHE[Hyp]WS[Trp(1-CH2COOH)][NMeNle][NMeNle][Dap]CG-NH2; thioether N-14),1 to 9.9
4,CCCC[C@H]1C(=O)N(C)[C@@H](CCCC)C(=O)N[C@@H](CN)C(=O)N[C@H](C(=O)NCC(N)=O)CSCC(=O)N[C@@H](Cc2ccc(O)cc2)C(=O)N(C)[C@@H](C)C(=O)N[C@@H](CC(N)=O)C(=O)N2CCC[C@H]2C(=O)N[C@@H](CO)C(=O)N[C@@H](Cc2cnc[nH]2)C(=O)N2C[C@H](O)C[C@H]2C(=O)N[C@@H](Cc2c[nH]c3ccccc23)C(=O)N[C@@H](CCN)C(=O)N[C@@H](Cc2cn(CC(=O)O)c3ccccc23)C(=O)N1C [Example 6247] ({CH2CO}-Y[NMeA]NPSH[Hyp]W[Dab][Trp(1-CH2COOH)][NMeNle][NMeNle][Dap]CG-NH2; thioether N-14),1 to 9.9
5,CCCC[C@H]1C(=O)N(C)[C@@H](CCCC)C(=O)N[C@@H](C)C(=O)N[C@H](C(=O)NCC(N)=O)CSCC(=O)N[C@@H](Cc2ccc(O)cc2)C(=O)N(C)[C@@H](C)C(=O)N[C@@H](CC(=O)O)C(=O)N2CCC[C@H]2C(=O)N[C@@H](Cc2cnc[nH]2)C(=O)N[C@@H](CCCN)C(=O)N2C[C@H](O)C[C@H]2C(=O)N[C@@H](Cc2c[nH]c3ccccc23)C(=O)N[C@@H](CO)C(=O)N[C@@H](Cc2cn(CC(=O)O)c3ccccc23)C(=O)N1C [Example 6249] ({CH2CO}-Y[NMeA]DPH[Orn][Hyp]WS[Trp(1-CH2COOH)][NMeNle][NMeNle]ACG-NH2; thioether N-14),1 to 9.9
6,CCCC[C@H]1C(=O)N(C)[C@@H](CCCC)C(=O)N[C@@H](CCC(=O)O)C(=O)N[C@H](C(=O)NCC(N)=O)CSCC(=O)N[C@@H](Cc2ccc(O)cc2)C(=O)N(C)[C@@H](C)C(=O)N[C@@H](CC(N)=O)C(=O)N2CCCC2C(=O)N[C@@H](CO)C(=O)N[C@@H](CC(C)C)C(=O)N2C[C@H](O)C[C@H]2C(=O)N[C@@H](Cc2c[nH]c3ccccc23)C(=O)N[C@@H](CO)C(=O)N[C@@H](Cc2cn(CC(=O)O)c3ccccc23)C(=O)N1C (stereo partly drawn) [Example 6250] ({CH2CO}-Y[NMeA]N[ξP]SL[Hyp]WS[Trp(1-CH2COOH)][NMeNle][NMeNle]ECG-NH2; thioether N-14),1 to 9.9
7,CCCC[C@H]1C(=O)N(C)[C@@H](CCCC)C(=O)N[C@@H](CC(C)C)C(=O)N[C@H](C(N)=O)CSCC(=O)N[C@@H](Cc2ccc(O)cc2)C(=O)N(C)[C@@H](C)C(=O)N[C@@H](CC(N)=O)C(=O)N2CCC[C@H]2C(=O)N[C@@H](CN)C(=O)N[C@@H](CC(C)C)C(=O)N2C[C@H](O)C[C@H]2C(=O)N[C@@H](Cc2c[nH]c3ccccc23)C(=O)N[C@@H](CC(=O)O)C(=O)N[C@@H](Cc2cn(CC(=O)O)c3ccccc23)C(=O)N1C [Example 6258] ({CH2CO}-Y[NMeA]NP[Dap]L[Hyp]WD[Trp(1-CH2COOH)][NMeNle][NMeNle]LC-NH2; thioether N-14),10 to 99.9
8,CCCC[C@H]1C(=O)N(C)[C@@H](CCCC)C(=O)N[C@@H](CC(C)C)C(=O)N[C@H](C(=O)NCC(N)=O)CSCC(=O)N[C@@H](Cc2ccc(O)cc2)C(=O)N(C)[C@@H](C)C(=O)N[C@@H](CC(N)=O)C(=O)N[C@H](C)C(=O)N[C@@H](Cc2cnc[nH]2)C(=O)N[C@@H](CCC(N)=O)C(=O)N2C[C@H](O)C[C@H]2C(=O)N[C@@H](Cc2c[nH]c3ccccc23)C(=O)N[C@@H](CO)C(=O)N[C@@H](Cc2c[nH]c3ccccc23)C(=O)N1C [Example 6262] ({CH2CO}-Y[NMeA]N[dA]HQ[Hyp]WSW[NMeNle][NMeNle]LCG-NH2; thioether N-14),1 to 9.9
9,CCCC[C@H]1C(=O)N(C)[C@@H](CCCC)C(=O)N[C@@H](CC(C)C)C(=O)N[C@H](C(=O)NCC(N)=O)CSCC(=O)N[C@@H](Cc2ccc(O)cc2)C(=O)N(C)[C@@H](C)C(=O)N[C@@H](CC(N)=O)C(=O)N2CCC[C@H]2C(=O)N[C@@H](CO)C(=O)N[C@@H](CCC(=O)O)C(=O)N2C[C@H](O)C[C@H]2C(=O)N[C@@H](Cc2c[nH]c3ccccc23)C(=O)N[C@@H](CCN)C(=O)N[C@@H](Cc2cn(CC(=O)O)c3ccccc23)C(=O)N1C [Example 6266] ({CH2CO}-Y[NMeA]NPSE[Hyp]W[Dab][Trp(1-CH2COOH)][NMeNle][NMeNle]LCG-NH2; thioether N-14),10 to 99.9

# Next, values leading:
row,IC50 [nM],SMILES
1,1 to 9.9,CCCC[C@H]1C(=O)N(C)[C@@H](CCCC)C(=O)N[C@@H](CC(C)C)C(=O)N[C@H](C(N)=O)CSCC(=O)N[C@@H](Cc2ccc(O)cc2)C(=O)N(C)[C@@H](C)C(=O)N[C@@H](CC(N)=O)C(=O)N2CCC[C@H]2C(=O)N[C@@H](CN)C(=O)N[C@@H](CC(C)C)C(=O)N2C[C@H](O)C[C@H]2C(=O)N[C@@H](Cc2c[nH]c3ccccc23)C(=O)N[C@@H](CCC(=O)O)C(=O)N[C@@H](Cc2cn(CC(=O)O)c3ccccc23)C(=O)N1C [Example 6203] ({CH2CO}-Y[NMeA]NP[Dap]L[Hyp]WE[Trp(1-CH2COOH)][NMeNle][NMeNle]LC-NH2; thioether N-14)
2,1 to 9.9,CCCC[C@H]1C(=O)N(C)[C@@H](CCCC)C(=O)N[C@@H](CC(C)C)C(=O)N[C@H](C(=O)NCC(N)=O)CSCC(=O)N[C@@H](Cc2ccc(O)cc2)C(=O)N(C)[C@@H](C)C(=O)N[C@@H](CC(N)=O)C(=O)N2CCC[C@H]2C(=O)N[C@@H](Cc2cnc[nH]2)C(=O)N[C@@H](CCCCN)C(=O)N2C[C@H](O)C[C@H]2C(=O)N[C@@H](Cc2c[nH]c3ccccc23)C(=O)N[C@@H](CCCCN)C(=O)N[C@@H](Cc2cn(CC(=O)O)c3ccccc23)C(=O)N1C [Example 6204] ({CH2CO}-Y[NMeA]NPHK[Hyp]WK[Trp(1-CH2COOH)][NMeNle][NMeNle]LCG-NH2; thioether N-14)
3,1 to 9.9,CCCC[C@H]1C(=O)N(C)[C@@H](CCCC)C(=O)N[C@@H](CC(=O)O)C(=O)N[C@H](C(=O)NCC(N)=O)CSCC(=O)N[C@@H](Cc2ccc(O)cc2)C(=O)N(C)[C@@H](C)C(=O)N[C@@H](CC(=O)O)C(=O)N2CCC[C@H]2C(=O)N[C@@H](Cc2cnc[nH]2)C(=O)N[C@@H](CCCCN)C(=O)N2C[C@H](O)C[C@H]2C(=O)N[C@@H](Cc2c[nH]c3ccccc23)C(=O)N[C@@H](CCCCN)C(=O)N[C@@H](Cc2cn(CC(=O)O)c3ccccc23)C(=O)N1C [Example 6209] ({CH2CO}-Y[NMeA]DPHK[Hyp]WK[Trp(1-CH2COOH)][NMeNle][NMeNle]DCG-NH2; thioether N-14)
4,1 to 9.9,CCCC[C@H]1C(=O)N(C)[C@@H](CCCC)C(=O)N[C@@H](CCCNC(=N)N)C(=O)N[C@H](C(=O)NCC(N)=O)CSCC(=O)N[C@@H](Cc2ccc(O)cc2)C(=O)N(C)[C@@H](C)C(=O)N[C@@H](CC(N)=O)C(=O)N2CCC[C@H]2C(=O)N[C@@H](CO)C(=O)N[C@@H](CCO)C(=O)N2C[C@H](O)C[C@H]2C(=O)N[C@@H](Cc2c[nH]c3ccccc23)C(=O)N[C@@H](CCO)C(=O)N[C@@H](Cc2cn(CC(=O)O)c3ccccc23)C(=O)N1C [Example 6213] ({CH2CO}-Y[NMeA]NPS[hSer][Hyp]W[hSer][Trp(1-CH2COOH)][NMeNle][NMeNle]RCG-NH2; thioether N-14)
5,1 to 9.9,CCCC[C@H]1C(=O)N(C)[C@@H](CCCC)C(=O)N[C@@H](CC(C)C)C(=O)N[C@H](C(=O)NCC(N)=O)CSCC(=O)N[C@@H](Cc2ccc(O)cc2)C(=O)N(C)[C@@H](C)C(=O)N[C@@H](CC(N)=O)C(=O)N2CCC[C@H]2C(=O)N[C@@H](CO)C(=O)N[C@@H](CCC(N)=O)C(=O)N2C[C@H](O)C[C@H]2C(=O)N[C@@H](Cc2c[nH]c3ccccc23)C(=O)N[C@@H](CO)C(=O)N[C@@H](Cc2cn(CC(=O)O)c3ccccc23)C(=O)N1C [Example 6216] ({CH2CO}-Y[NMeA]NPSQ[Hyp]WS[Trp(1-CH2COOH)][NMeNle][NMeNle]LCG-NH2; thioether N-14)
6,1 to 9.9,CCCC[C@H]1C(=O)N(C)[C@@H](CCCC)C(=O)N[C@@H](CCCNC(=N)N)C(=O)N[C@H](C(=O)NCC(N)=O)CSCC(=O)N[C@@H](Cc2ccc(O)cc2)C(=O)N(C)[C@@H](C)C(=O)N[C@@H](CC(N)=O)C(=O)N2CCC[C@H]2C(=O)N[C@@H](Cc2cnc[nH]2)C(=O)N[C@@H](CCC(=O)O)C(=O)N2C[C@H](O)C[C@H]2C(=O)N[C@@H](Cc2c[nH]c3ccccc23)C(=O)N[C@@H](CO)C(=O)N[C@@H](Cc2cn(CC(=O)O)c3ccccc23)C(=O)N1C [Example 6228] ({CH2CO}-Y[NMeA]NPHE[Hyp]WS[Trp(1-CH2COOH)][NMeNle][NMeNle]RCG-NH2; thioether N-14)

# Reference: patent US10538555B2, “Macrocyclic inhibitors of the PD-1/PD-L1 and CD80(B7-1)/PD-L1 protein/protein interactions” (BRISTOL-MYERS SQUIBB COMPANY, priority 2014, dated 2020)
